What all share (assay type): biochemical
The target of experiment [1] is Human Aldose Reductase (Homo sapiens, UniProt P15121). Description: Human Aldose Reductase Inhibition.
Experiment [2] addresses Rat Aldose Reductase (Rattus norvegicus, UniProt P07943). As to the kind of experiment: Rat Aldose Reductase Inhibition. Particulars: for inhibition at 100 µM: 10^-4, read-out: In vitro Aldose Reductase Inhibition; for inhibition at 10 µM: 10^-5, read-out: In vitro Aldose Reductase Inhibition; for inhibition at 1 µM: 10^-6, read-out: In vitro Aldose Reductase Inhibition; for inhibition at 0.1 µM: 10^-7, read-out: In vitro Aldose Reductase Inhibition; for inhibition at 0.01 µM: 10^-8, read-out: In vitro Aldose Reductase Inhibition. The source says: Biophysical Chemistry, 8 (1978) 81-85; P. F. Kador, L. O. Merola and J. H
Kinoshita Documenta Ophthamologica, 18 (1979) 117.

The subject of experiment [3] is aldose reductase. Description: aldose reductase inhibition of spiro-xanthene-imidazolidines (in words).
The mark [4] stands for this setting: 10^-4, human, read-out: In vitro Aldose Reductase Inhibition.
Setting [5] is: 10^-5, human, read-out: In vitro Aldose Reductase Inhibition.
[6] abbreviates: 10^-6, human, read-out: In vitro Aldose Reductase Inhibition.
Where [7] appears, read: read-out: In vitro Aldose Reductase Inhibition.

Experimental findings from patent publication US4540700A, “Treatment of diabetic complications with certain spiro-imidazolidine-diones” (Alcon Laboratories, Inc., priority 1984, dated 1985) are described below.

Molecules are shown by their SMILES. Where two headings read alike, the source gives them in different places.

For orientation: inhibition means the drop in the measured response relative to a control, in per cent. For `O=C1NC(=O)C2(N1)c1ccccc1-c1ccc([N+](=O)[O-])cc12` (racemic) [C, dl-Spiro-[2-nitrofluoren-9,4'-imidazolidine]-2',5'-dione], the inhibition at 100 µM in experiment [1] (setting [4]) is 65%. In addition, in experiment [1] (setting [5]), the inhibition at 10 µM was found to be 20%. In experiment [1] (setting [6]), the inhibition at 1 µM amounted to 8%.
Consider `O=C1NC(=O)C2(N1)c1ccccc1-c1ccc(Br)cc12` (racemic) [E, dl-Spiro-[2-bromofluoren-9,4'-imidazolidine]-2', 5'-dione], for which, in experiment [2], the inhibition at 100 µM stood at 100%, the inhibition at 10 µM turned out to be 82%, the inhibition at 1 µM came to 62% and the inhibition at 0.1 µM came out at 33%. The inhibition at 0.01 µM in experiment [2] was 8%.
In the case of `Nc1cccc2c1-c1ccccc1C21NC(=O)NC1=O` (racemic) [G, dl-Spiro-[4-aminofluoren-9,4'-imidazolidine]-2',5'-dione], in experiment [1] (setting [4]), the inhibition at 100 µM is 50%. Further, in experiment [1] (setting [5]), the inhibition at 10 µM is 28%. The inhibition at 1 µM in experiment [1] (setting [6]) was found to be 20%.
The like results for `Nc1ccc2c(c1)C1(NC(=O)NC1=O)c1ccccc1-2` (racemic) [H, dl-Spiro-[2-aminofluoren-9,4'-imidazolidine]-2',5'-dione] were, in that order, 43%, 31% and 0%.
With `O=C1NC(=O)C2(N1)c1ccccc1-c1ccc(I)cc12` (racemic) [J, dl-Spiro-[2-iodofluoren-9,4'-imidazolidine]-2',5'-dione], the inhibition at 100 µM in experiment [1] (setting [4]) turned out to be 94%. Further, the inhibition at 10 µM in experiment [1] (setting [5]) is 88%. The inhibition at 1 µM in experiment [1] (setting [6]) was 77%. In addition, the inhibition at 0.1 µM in experiment [1] (10^-7, human, read-out: In vitro Aldose Reductase Inhibition) turned out to be 39%. Further, in experiment [1] (10^-8, human, read-out: In vitro Aldose Reductase Inhibition), the inhibition at 0.01 µM worked out at 0%.
As for `Cc1cccc2c1C1(NC(=O)NC1=O)c1ccccc1-2` (racemic) [K, dl-Spiro-[1-methylfluoren-9,4'-imidazolidine]-2',5'-dione], in experiment [2], the inhibition at 100 µM was determined as 96%, the inhibition at 10 µM came out at 85%, the inhibition at 1 µM is 47% and the inhibition at 0.1 µM is 6%.
Take `O=C1NC(=O)C2(N1)c1ccccc1-c1ccc(C(=O)O)cc12` (racemic) [N, dl-Spiro-[2-carboxyfluoren-9,4'-imidazolidine]-2',5'-dione]: in experiment [2], the inhibition at 100 µM was 89%, the inhibition at 10 µM turned out to be 54% and the inhibition at 1 µM amounted to 0%.
By IC50 is commonly meant the point on the concentration scale where inhibition reaches its midpoint. Lower therefore signals greater potency in that assay. In turn, `CSc1ccc2c(c1)C1(NC(=O)NC1=O)c1ccccc1-2` (racemic) [P, dl-Spiro-[2-methylthiofluoren-9,4'-imidazolidine]-2',5'-dione] returned an IC50 in experiment [2] of 0.42 µM.
The same measure, in the same setting: for `C[S+]([O-])c1ccc2c(c1)C1(NC(=O)NC1=O)c1ccccc1-2` (racemic) [Q, Spiro-[2-(R,S)-methylsulfinylfluoren-9, (R,S)-4'-imidazolidine]-2',5'-dione] the value was 1.7 µM.
The same measure, in the same setting: for `CS(=O)(=O)c1ccc2c(c1)C1(NC(=O)NC1=O)c1ccccc1-2` (racemic) [R, dl-Spiro-(2-methylsulfonylfluoren-9,4'-imidazolidine)-2',5'-dione] the value was 5 µM; for `O=C1NC(=O)C2(N1)c1ccccc1-c1cccc(F)c12` (racemic) [S, dl-Spiro-[1-fluorofluoren-9,4'-imidazolidine]-2',5'-dione], 0.59 µM; for `O=C1NC(=O)C2(N1)c1ccccc1-c1c(F)cccc12` (racemic) [U, dl-Spiro-[4-fluorofluoren-9,4'-imidazolidine]-2',5'-dione], 0.46 µM.
In the case of `O=C1NC(=O)C2(N1)c1ccccc1-c1ccccc12` [A, Spiro-(fluoren-9,4'-imidazolidine)-2',5'-dione], the IC50 in experiment [1] (human) came to 1.2 µM. In addition, in experiment [1] (setting [7]), the inhibition at 0.1 µM came out at 13%, the inhibition at 1 µM stood at 49%, the inhibition at 10 µM turned out to be 84% and the inhibition at 100 µM was 89%.
`O=C1NC(=O)C2(N1)c1cc(Cl)ccc1-c1ccc(Cl)cc12` [Compound B, Spiro-[2,7-dichlorofluoren-9,4'-imidazolidine]-2',5'-dione]: the “In vitro Aldose Reductase Inhibition” value was 65 in experiment [1] (10^-4, human); 30 in experiment [1] (10^-5, human); 12 in experiment [1] (10^-6, human).
In the case of `O=C1NC(=O)C2(N1)c1cc([N+](=O)[O-])ccc1-c1ccc([N+](=O)[O-])cc12` [Compound D, Spiro [2,7-dinitrofluoren-9,4'-imidazolidine]-2',5'-dione], in experiment [1] (setting [7]), the inhibition at 1 µM was 20%, the inhibition at 10 µM worked out at 76% and the inhibition at 100 µM turned out to be 100%.
As to `O=C1NC(=O)C2(N1)c1cc(Br)ccc1-c1ccc(Br)cc12` [F, Spiro-[2,7-dibromofluoren-9,4'-imidazolidine]-2',5'-dione], in experiment [2], the inhibition at 10 µM turned out to be 94%, the inhibition at 1 µM came out at 76%, the inhibition at 0.1 µM is 55% and the inhibition at 0.01 µM is 12%.
In the case of `Nc1ccc2c(c1)C1(NC(=O)NC1=O)c1cc(N)ccc1-2` [I, Spiro-[2,7-diaminofluoren-9,4'-imidazolidine]-2',5'-dione], the inhibition at 100 µM in experiment [1] (setting [4]) is 50%. Also, in experiment [1] (setting [5]), the inhibition at 10 µM is 25%. The inhibition at 1 µM in experiment [1] (setting [6]) stood at 10%.
Regarding `O=C1NC(=O)C2(CCOc3ccc(F)cc32)N1` (stereo not shown) [Sarges Resolved, dSpiro-(6-fluorochroman-4,4imidazolidine)-2',5dione, reference compound], the “activity against human aldose reductase as compared to rat aldose reductase” value in experiment [1] (human vs rat) is given as “one fourth”.
For the compound `O=C1NC(=O)C2(N1)c1cc(F)ccc1Oc1ccc(F)cc12` [spiro-(2,7-difluroxanthen-9,4'-imidazolidine)-2',5'-dione], the “activity as aldose reductase inhibitors relative to corresponding tetracyclic fluorene compounds” value in experiment [3] is given as “unexpectedly less active”.
On the same count and under the same terms, to `O=C1NC(=O)C2(N1)c1ccccc1Oc1ccccc12` [spiro-(xanthen-9,4'-imidazolidine)-2',5'-dione] belongs “unexpectedly less active”.
